From patent US11000033B2, “Ketone or oxime compound, and herbicide” (NISSAN CHEMICAL CORPORATION, priority 2014, dated 2021)

Tests used:
Type in all cases: in vivo
[1] = tested on: Stellaria media; assay: Test Example 5: herbicidal effect by foliage application, plastic box (symbol P); conditions: 320 g/ha, 3 weeks after application
Procedure, shortened: (§1)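 Effect is rated 3 weeks after a foliar spray of water-diluted emulsion concentrate at a predetermined herbicide amount. Plants had grown 14 days in a 25° C. to 30° C. greenhouse from seed in sterilized diluvial soil.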

[2] = tested on: soybean; assay: Test Example 4: effect on crop by soil treatment (symbol d); conditions: application herbicide amount 320 g/ha
Procedure, shortened: (§2)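 Crop seeds, among them rice, wheat, beet and rapeseed, were sown in sterilized diluvial soil and covered with about 1.5 cm of soil. Boxes were kept in a greenhouse at 25° C. to 30° C. for plant growth.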

[3] = tested on: Echinochloa oryzacola Vasing.; assay: Test Example 2: herbicidal activity, application during weed generation in submerged conditions (symbol A); conditions: Table 23; application herbicide amount 320 g/ha; grade 0-5 by criteria of Test Example 1
Procedure, shortened: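 Compound was applied as a water-diluted emulsion into the standing water of flooded pots (4 cm) once co-sown weeds reached one to two leaves. Greenhouse temperature was 25° C. to 30° C., soil was alluvial, and each species was rated visually after 3 weeks.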

[4] = tested on: Digitaria ciliaris; assay: Test Example 4: herbicidal effect by soil treatment (symbol F); conditions: application herbicide amount 320 g/ha
Procedure, shortened: (§3)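 Seeds were sown in sterilized diluvial soil, covered with about 1.5 cm of soil, and the soil surface was sprayed with a water-diluted emulsion of the compound at a predetermined rate. Plants grew in a greenhouse at 25° C. to 30° C.; effects were scored visually 3 weeks after application.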

[5] = tested on: Avena fatua; assay: Test Example 4: herbicidal effect by soil treatment (symbol I); conditions: application herbicide amount 320 g/ha
Procedure, shortened: as §3

[6] = tested on: Cyperus difformis; assay: Test Example 3: herbicidal effect by foliage application, Wagner pot (symbol E); conditions: application herbicide amount 320 g/ha
Procedure, shortened: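 In a shallow-flooded alluvial soil system held at 25–30 °C, plants including rice grew for 14 days and were then sprayed over the foliage with emulsion diluted to a fixed herbicide amount. Visual rating followed at 3 weeks.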

[7] = tested on: rice; assay: Test Example 4: effect on crop by soil treatment (symbol b); conditions: application herbicide amount 320 g/ha
Procedure, shortened: as §2

[8] = tested on: wheat; assay: Test Example 4: effect on crop by soil treatment (symbol e); conditions: application herbicide amount 320 g/ha
Procedure, shortened: as §2

[9] = tested on: rapeseed; assay: Test Example 4: effect on crop by soil treatment (symbol g); conditions: application herbicide amount 320 g/ha
Procedure, shortened: as §2

[10] = tested on: Galium spurium; assay: Test Example 5: herbicidal effect by foliage application, plastic box (symbol Q); conditions: 320 g/ha, 3 weeks after application
Procedure, shortened: as §1

[11] = tested on: corn; assay: Test Example 5: effect on crop by foliage application, plastic box (symbol c); conditions: 320 g/ha, 3 weeks after application
Procedure, shortened: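 Foliage-application test plants come from spot sowing in sterilized diluvial soil under a soil layer of about 1.5 cm, grown at 25° C. to 30° C. in a greenhouse.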

[12] = tested on: transplanted rice plant; assay: Test Example 1: effect on crop, application before weed generation in submerged conditions (symbol a); conditions: application herbicide amount 320 g/ha
Procedure, shortened: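 Alluvial soil pots flooded to 4 cm water, sown with Echinochloa oryzacola, Scirpus juncoides and Monochoria vaginalis, then transplanted with 2.5 leaf stage rice seedlings; pre-emergence application. Greenhouse 25° C. to 30° C.; scored 0–5 by herbicidal ratio 3 weeks after application.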

| Structure (SMILES) | P: Stellaria media, herbicidal effect grade [1] | d (soybean) effect on crop grade [2] | Herbicidal effect grade, A: Echinochloa oryzacola Vasing. [3] | F (Digitaria ciliaris) herbicidal effect grade [4] | I (Avena fatua) herbicidal effect grade [5] | herbicidal effect on E, grade 0-5 [6] | b (directly sowed rice plant) effect on crop grade [7] | e (wheat) effect on crop grade [8] | g (rapeseed) effect on crop grade [9] | Q: Galium spurium, herbicidal effect grade [10] | c: corn, effect on crop grade [11] | Effect grade on crop, a: transplanted rice plant [12] |
| --- | --- | --- | --- | --- | --- | --- | --- | --- | --- | --- | --- | --- |
| CON=C(C)CC1CC(OC(=O)COc2ccc(Cl)cc2)=C(c2c(C)cc(C)cc2C)C1=O (stereo not drawn) [1-044] | 0 (Herbicidal ratio of 5% or lower (almost no effect)) | 0 (Herbicidal ratio of 5% or lower (almost no effect)) | 5 (Herbicidal ratio of 90% or more (almost completely withered)) | 5 (Herbicidal ratio of 90% or more (almost completely withered)) | 2 (Herbicidal ratio of 20% or higher and lower than 40%) | 5 (Herbicidal ratio of 90% or more (almost completely withered)) | 5 (Herbicidal ratio of 90% or more (almost completely withered)) | 2 (Herbicidal ratio of 20% or higher and lower than 40%) | 4 (Herbicidal ratio of 70% or higher and lower than 90%) | 0 (Herbicidal ratio of 5% or lower (almost no effect)) | 4 (Herbicidal ratio of 70% or higher and lower than 90%) | 5 (Herbicidal ratio of 90% or more (almost completely withered)) |
| CON=C(CC1CC(O)=C(c2c(C)cc(C)cc2C)C1=O)c1ccccn1 (stereo not drawn) [1-045] | 0 (Herbicidal ratio of 5% or lower (almost no effect)) | 0 (Herbicidal ratio of 5% or lower (almost no effect)) | 3 (Herbicidal ratio of 40% or higher and lower than 70%) | 0 (Herbicidal ratio of 5% or lower (almost no effect)) | 0 (Herbicidal ratio of 5% or lower (almost no effect)) | 0 (Herbicidal ratio of 5% or lower (almost no effect)) | 0 (Herbicidal ratio of 5% or lower (almost no effect)) | 0 (Herbicidal ratio of 5% or lower (almost no effect)) | 0 (Herbicidal ratio of 5% or lower (almost no effect)) | 0 (Herbicidal ratio of 5% or lower (almost no effect)) | 3 (Herbicidal ratio of 40% or higher and lower than 70%) | 3 (Herbicidal ratio of 40% or higher and lower than 70%) |
| CON=C(CC1CC(O)=C(c2c(C)cc(C)cc2C)C1=O)C1CC1 (stereo not drawn) [1-046] | 2 (Herbicidal ratio of 20% or higher and lower than 40%) | 0 (Herbicidal ratio of 5% or lower (almost no effect)) | 5 (Herbicidal ratio of 90% or more (almost completely withered)) | 5 (Herbicidal ratio of 90% or more (almost completely withered)) | 5 (Herbicidal ratio of 90% or more (almost completely withered)) | 5 (Herbicidal ratio of 90% or more (almost completely withered)) | 5 (Herbicidal ratio of 90% or more (almost completely withered)) | 4 (Herbicidal ratio of 70% or higher and lower than 90%) | 4 (Herbicidal ratio of 70% or higher and lower than 90%) | 0 (Herbicidal ratio of 5% or lower (almost no effect)) | 5 (Herbicidal ratio of 90% or more (almost completely withered)) | 5 (Herbicidal ratio of 90% or more (almost completely withered)) |
| CON=C(CC1CC(O)=C(c2c(C)cc(C)cc2C)C1=O)C(C)C (stereo not drawn) [1-048] | 3 (Herbicidal ratio of 40% or higher and lower than 70%) | 0 (Herbicidal ratio of 5% or lower (almost no effect)) | 5 (Herbicidal ratio of 90% or more (almost completely withered)) | 5 (Herbicidal ratio of 90% or more (almost completely withered)) | 1 (Herbicidal ratio of 5% or higher and lower than 20%) | 5 (Herbicidal ratio of 90% or more (almost completely withered)) | 5 (Herbicidal ratio of 90% or more (almost completely withered)) | 2 (Herbicidal ratio of 20% or higher and lower than 40%) | 0 (Herbicidal ratio of 5% or lower (almost no effect)) | 1 (Herbicidal ratio of 5% or higher and lower than 20%) | 4 (Herbicidal ratio of 70% or higher and lower than 90%) | 5 (Herbicidal ratio of 90% or more (almost completely withered)) |
| CON=C(C)C(c1ccc(F)cc1)C1CC(O)=C(c2c(C)cc(C)cc2C)C1=O (stereo not drawn) [1-049] | 0 (Herbicidal ratio of 5% or lower (almost no effect)) | 0 (Herbicidal ratio of 5% or lower (almost no effect)) | 0 (Herbicidal ratio of 5% or lower (almost no effect)) | 0 (Herbicidal ratio of 5% or lower (almost no effect)) | 0 (Herbicidal ratio of 5% or lower (almost no effect)) | 0 (Herbicidal ratio of 5% or lower (almost no effect)) | 0 (Herbicidal ratio of 5% or lower (almost no effect)) | 0 (Herbicidal ratio of 5% or lower (almost no effect)) | 0 (Herbicidal ratio of 5% or lower (almost no effect)) | 0 (Herbicidal ratio of 5% or lower (almost no effect)) | 0 (Herbicidal ratio of 5% or lower (almost no effect)) | 0 (Herbicidal ratio of 5% or lower (almost no effect)) |
| CON=CCC1CC(O)=C(c2c(C)cc(C)cc2C)C1=O (stereo not drawn) [1-050] | 0 (Herbicidal ratio of 5% or lower (almost no effect)) | 0 (Herbicidal ratio of 5% or lower (almost no effect)) | 3 (Herbicidal ratio of 40% or higher and lower than 70%) | 5 (Herbicidal ratio of 90% or more (almost completely withered)) | 0 (Herbicidal ratio of 5% or lower (almost no effect)) | 5 (Herbicidal ratio of 90% or more (almost completely withered)) | 5 (Herbicidal ratio of 90% or more (almost completely withered)) | 0 (Herbicidal ratio of 5% or lower (almost no effect)) | 0 (Herbicidal ratio of 5% or lower (almost no effect)) | 0 (Herbicidal ratio of 5% or lower (almost no effect)) | 0 (Herbicidal ratio of 5% or lower (almost no effect)) | 4 (Herbicidal ratio of 70% or higher and lower than 90%) |
| CCCCCCCON=C(C)CC1CC(O)=C(c2c(C)cc(C)cc2C)C1=O (stereo not drawn) [1-054] | 0 (Herbicidal ratio of 5% or lower (almost no effect)) | 0 (Herbicidal ratio of 5% or lower (almost no effect)) | 3 (Herbicidal ratio of 40% or higher and lower than 70%) | 5 (Herbicidal ratio of 90% or more (almost completely withered)) | 0 (Herbicidal ratio of 5% or lower (almost no effect)) | 0 (Herbicidal ratio of 5% or lower (almost no effect)) | 5 (Herbicidal ratio of 90% or more (almost completely withered)) | 0 (Herbicidal ratio of 5% or lower (almost no effect)) | 1 (Herbicidal ratio of 5% or higher and lower than 20%) | 0 (Herbicidal ratio of 5% or lower (almost no effect)) | 0 (Herbicidal ratio of 5% or lower (almost no effect)) | 5 (Herbicidal ratio of 90% or more (almost completely withered)) |
